Measured values reported in patent publication US20050143358A1, “Methods for reducing body fat using vitamin D compounds” (Deltanoid Pharmaceuticals, Inc., priority 2003, published 2005).
Entries after “also recorded” stand apart in the source; their conditions may differ.

Key:
[1] = tested on: human leukemia cells; settings: biological testing of 19-nor-analogs; cited from earlier work
[2] = cited from earlier work
[3] = tested on: osteoblast cell line; settings: Yamamoto et al., J. Biol. Chem. 278, 31756 (2003); cited from earlier work
[4] = studies described in Shevde et al.; cited from earlier work
[5] = tested on: ovariectomized rats; assay: Whole body DEXA body composition in ovariectomized rats (Example 3); format: in vivo, rat
Description: FIG. 1 is a flow-chart illustrating the experimental design of the investigations described herein. Female Sprague Dawley rats (Taconic, German Town, N.Y.) were placed on a purified diet of 0.5% calcium and 0.4% phosphorus (AIN-76A Rodent Diet, prepared by Research Diet, Inc., New Brunswick, N.J.). At 4 months of age, a first subset (20) of the animals was sham-operated while a second subset (90) was ovariectomized. The time of ovariectomy is designated as week 0. Eight weeks after this surgery, the ovariectomized animals were divided into experimental groups receiving the following dosing regimen: 2MD, at doses of 0.5, 1.0, 2.5, 5.0 and 10 ng/kg/day; calcitriol (the active form of vitamin D), at doses of 50 ng/kg/day and 200 ng/kg/day; and human parathyroid hormone hPTH, at doses of 20 μg/kg/day. The 2MD and the calcitriol were administered orally in 100 μl of vegetable oil delivered to the back of the tongue by a throat tube, while the hPTH was administered sub-cutaneously.
Serum calcium was measured by tail bleeding at week 14 ([…]), week 21 and week 24. At week 24, the animals were sacrificed and the following endpoint measurements were taken: whole body DEXA; bone markers: osteocalcin and deoxypyridinoline (DPD); peripheral quantitative computed tomography (pQCT) of the distal femoral metaphysis (DFM) and femoral shaft (FS); micro-computerized tomography (micro-CT) of the DFM; serum parathyroid hormone (PTH); histomorphometry of the proximal tibial metaphysis (PTM), lumbar vertebra 3 (LV3) and trabecular separation (TS); and bone strength of the DFM, FS and lumbar vertebra 5 (LV5).
At week 0, the animals underwent surgical treatment as explained above. The animals were allowed to recuperate for 8 weeks before the dosing regimen began (0 wk). At 24 weeks post-surgery the animals were sacrificed and endpoint measurements were taken as explained above.

[6] = 10 ng/kg/day oral, DEXA, FIG. 3
[7] = 10 ng/kg/day oral, DEXA, FIG. 4
[8] = doses of at least 2.5 ng/kg/day, DEXA, FIG. 4
[9] = 200 ng/kg/day oral, DEXA, FIG. 4

## C[C@H](CCCC(C)(C)O)[C@H]1CC[C@H]2/C(=C/C=C3C[C@@H](O)C[C@H](O)C3)CCC[C@]12C [1α,25-dihydroxy-19-nor-vitamin D3, reference compound]
[1]
  potency in inducing cellular differentiation: high potency
[2]; biological testing of 19-nor-analogs
  calcium mobilizing activity: very low

## C=C1[C@H](O)CC(=C/C=C2\CCC[C@]3(C)[C@@H]([C@@H](C)CCCC(C)(C)O)CC[C@@H]23)C[C@H]1O [2MD, 2-methylene-19-nor-(20S)-1α,25 dihydroxyvitamin D3]
[3]
  activity relative to calcitriol in inducing genes in the osteoblast cell line: at least 100 fold
[4]
  intestinal calcium transport activity: low
[5]; 0.5 ng/kg/day oral, DEXA, FIG. 3
  percent body fat compared to ovariectomized/vehicle controls: little to no effect; also recorded: noticeable trend for a reduced increase
[5]; 1 ng/kg/day oral, DEXA, FIG. 3
  percent body fat compared to ovariectomized/vehicle controls: little to no effect
[5]; 5 ng/kg/day oral, DEXA, FIG. 3
  percent body fat compared to ovariectomized controls: significant decrease
[5]; 5 ng/kg/day oral, DEXA, FIG. 4
  body fat component compared to ovariectomized-vehicle controls: significantly less body fat
  bone mineral content (BMC) component compared to sham-operated controls: an increase
  lean component compared to sham-operated controls: an increase
  total body weight compared to sham/vehicle controls: significantly increased
[5]; 5 ng/kg/day oral, FIG. 3
  reduction in body fat compared with calcitriol at 200 ng/kg/day: as great an effect
[5]; [6]
  percent body fat compared to ovariectomized controls: significant decrease
  percent body fat compared to sham-operated controls: noticeably less percent body fat
[5]; [7]
  body fat component compared to ovariectomized controls: significantly lower
  body fat component compared to sham-operated controls: less body fat
  body weight compared to ovariectomized controls: significantly reduced
  lean body weight plus bone mineral content relative to sham operated animals: increased
  lean body weight relative to sham operated animals: increased
  total body weight compared to sham-control: virtually the same
[5]; 10 ng/kg/day oral, FIG. 3
  decrease in the fat component compared with the group receiving 200 ng/kg/day calcitriol: greater decrease
[5]; DEXA, FIG. 4
  increase in lean body component and bone mineral component compared with calcitriol at 50 ng/kg/day: more positive effect
[5]; OVX rats, 2MD 10 ng/kg/day oral, DEXA at week 24 (sham-operated group 25%)
  body fat content: 20%
[5]; [8]
  bone mineral content (BMC) relative to sham-operated or ovariectomized controls: noticeable increase
  lean body weight relative to sham-operated or ovariectomized controls: noticeable increase
[5]; starting at the 1 ng/kg/day dose, DEXA, FIG. 4
  fat component relative to OVX-controls: trend for a decrease
[2]; studies described in Shevde et al.
  bone calcium mobilization activity: high

## C=C1/C(=C\C=C2/CCC[C@]3(C)[C@@H]([C@H](C)CCCC(C)(C)O)CC[C@@H]23)C[C@@H](O)C[C@@H]1O [calcitriol, 1α,25-dihydroxyvitamin D3, reference compound]
[5]; 50 ng/kg/day oral, DEXA, FIG. 3
  percent body fat compared to ovariectomized controls: at most only a minor difference
[5]; 200 ng/kg/day oral, DEXA, FIG. 3
  percent body fat compared to ovariectomized controls: significant decrease
[5]; [9]
  body fat compared to ovariectomized controls: less body fat
  body fat compared to sham-operated controls: noticeable increase in body fat
[5]; calcitriol group, DEXA, FIG. 4
  body weight compared to ovariectomized controls: only a tendency for reduction
  overall body weight compared to sham-controls: increase in overall body weight
[5]; even at much higher doses than 2MD
  reduction of total body weight: did not act to significantly reduce

B1: hPTH: human parathyroid hormone hPTH, administered sub-cutaneously at 20 μg/kg/day (peptide, UniProt P01270 32-115, looked up)
Parathyroid hormone: SVSEIQLMHNLGKHLNSMERVEWLRKKLQDVHNFVALGAPLAPRDAGSQRPRKKEDNVLVESHEKSLGEADKADVNVLTKAKSQ
modifications: Parathyroid hormone
notes: human parathyroid hormone hPTH, administered sub-cutaneously at 20 μg/kg/day
[5]; 20 μg/kg/day sub-cutaneously, DEXA, FIG. 3
  percent body fat compared to ovariectomized controls: at most only a minor difference
